Measurements from ChEMBL document CHEMBL1201862, “PubChem BioAssay data set” (2004).
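Dose response: 5 concentrations. Exposure: 48 h. Format: 96-well plates. Endpoint: linear interpolation; highest concentration if not reached. At the GI50, growth is halved.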 Calls of active or inactive are those of the source. Rule as the data show it: active = GI50 up to about 1.1 µM and inactive = higher.

How the values were obtained:
Assay in all cases: inhibition of tumour cell growth, NCI panel, 48 h
ACHN = test system: ACHN
SK-MEL-28 = test system: SK-MEL-28
SF-539 = test system: SF-539
IGROV-1 = test system: IGROV-1
UACC-257 = test system: UACC-257
SNB-75 = test system: SNB-75
A549 = test system: A549
MOLT-4 = test system: MOLT-4
NCI-H23 = test system: NCI-H23
U-251 = test system: U-251
MDA-N = test system: MDA-N
NCI-H522 = test system: NCI-H522
OVCAR-8 = test system: OVCAR-8
HOP-62 = test system: HOP-62
OVCAR-3 = test system: OVCAR-3
Malme-3M = test system: Malme-3M
SK-MEL-5 = test system: SK-MEL-5
786-0 = test system: 786-0
SK-OV-3 = test system: SK-OV-3
DMS-273 = test system: DMS-273

Structure (SMILES) | GI50 (ACHN) | GI50 (SK-MEL-28) | GI50 (SF-539) | GI50 (IGROV-1) | GI50 (UACC-257) | GI50 (SNB-75) | GI50 (A549) | GI50 (MOLT-4) | GI50 (NCI-H23) | GI50 (U-251) | GI50 (MDA-N) | GI50 (NCI-H522) | GI50 (OVCAR-8) | GI50 (HOP-62) | GI50 (OVCAR-3) | GI50 (Malme-3M) | GI50 (SK-MEL-5) | GI50 (786-0) | GI50 (SK-OV-3) | GI50 (DMS-273)
CN1CCC(OC(=O)Oc2ccccc2)(c2ccccc2)CC1 | 34.9 µM (inactive) | 20.6 µM (inactive) | 13.6 µM (inactive) | 21.1 µM (inactive) | 19.7 µM (inactive) | 24.4 µM (inactive) | 38.2 µM (inactive) | 13.1 µM (inactive) | 14.4 µM (inactive) | 21.9 µM (inactive) | 17.6 µM (inactive) | 24 µM (inactive) | 17.5 µM (inactive) | 15.5 µM (inactive) | 61.5 µM (inactive) | 17.7 µM (inactive) | 20 µM (inactive) | > 100 µM (inactive) | 24.9 µM (inactive) | 
Cc1cc(C)c2c(c1)Nc1ccccc1P2c1ccccc1 (centres undefined) | > 10 µM (inactive) | 44.1 µM (inactive) |  | 27.8 µM (inactive) |  | 23.7 µM (inactive) | 32.1 µM (inactive) | 4.51 µM (inactive) | 25.9 µM (inactive) | 31.7 µM (inactive) |  |  | 31.6 µM (inactive) | 25.8 µM (inactive) | 24.6 µM (inactive) | 24.5 µM (inactive) |  | 36.5 µM (inactive) | > 100 µM (inactive) | 21.7 µM (inactive)
CCOP(=O)(OCC)OC1CC(n2cc(C)c(=O)n(C)c2=O)OC1CO[Si](C)(C)C(C)(C)C (centres undefined) | > 100 µM (inactive) | > 100 µM (inactive) | > 100 µM (inactive) | > 100 µM (inactive) | > 100 µM (inactive) | 75.9 µM (inactive) | 55.1 µM (inactive) | 37 µM (inactive) | > 100 µM (inactive) | > 100 µM (inactive) | > 100 µM (inactive) | 32.1 µM (inactive) | > 100 µM (inactive) | 79.6 µM (inactive) | > 100 µM (inactive) | > 100 µM (inactive) | 58.9 µM (inactive) | > 100 µM (inactive) | > 100 µM (inactive) | 
O=c1c(Cl)c(Cl)cnn1CCc1ccncc1 | 19.2 µM (inactive) | 16.4 µM (inactive) | 21.5 µM (inactive) | 17.3 µM (inactive) | 17.7 µM (inactive) | 16.6 µM (inactive) | 37.9 µM (inactive) | 82.6 µM (inactive) | 17.3 µM (inactive) |  |  |  | 22.1 µM (inactive) | 18.3 µM (inactive) | 17.6 µM (inactive) | 22 µM (inactive) | 16.1 µM (inactive) | 19.6 µM (inactive) |  | 18.6 µM (inactive)
Cc1c2c(n(CCc3ccc(Cl)cc3)c1C)NC(c1ccccc1)C(C#N)S2(=O)=O (centres undefined) | > 100 µM (inactive) | > 76.6 µM (inactive) | 34.8 µM (inactive) | 17.2 µM (inactive) | 58.6 µM (inactive) | 44.7 µM (inactive) | 22.5 µM (inactive) | 3.24 µM (inactive) | > 47.9 µM (inactive) | 38.2 µM (inactive) | 19.9 µM (inactive) | 11.7 µM (inactive) | 47 µM (inactive) | > 79.4 µM (inactive) | > 91.2 µM (inactive) | 20.5 µM (inactive) | 3.95 µM (inactive) | 32.3 µM (inactive) | > 90.6 µM (inactive) | 
CCOC(=O)/C=C(\C(=O)OCC)n1ccc(=O)n(Cc2cnnn2COCCOC(C)=O)c1=O | 3.79 µM (inactive) | 10 µM (inactive) | 2.36 µM (inactive) | 16.8 µM (inactive) | 16.2 µM (inactive) | 16.4 µM (inactive) | 21.6 µM (inactive) | 2.59 µM (inactive) | 17.3 µM (inactive) | 16.4 µM (inactive) | 16.8 µM (inactive) | 1.61 µM (inactive) | 12.1 µM (inactive) | 18.9 µM (inactive) | 11 µM (inactive) | 2.04 µM (inactive) | 21.9 µM (inactive) | 3.73 µM (inactive) | 53.7 µM (inactive) | 
CSCCC(NC(=O)OC(C)(C)C)C(=O)NCCNc1ccc(NCCNC(=O)C(CCSC)NC(=O)OC(C)(C)C)c2c1C(=O)c1ccccc1C2=O (centres undefined) | 7.13 µM (inactive) | 1.85 µM (inactive) | 2.71 µM (inactive) | 3.14 µM (inactive) | 5.65 µM (inactive) | 2.37 µM (inactive) | 2.84 µM (inactive) | 3.44 µM (inactive) | 4.51 µM (inactive) | 2.88 µM (inactive) | 2.74 µM (inactive) | 1.39 µM (inactive) | 1.96 µM (inactive) | 3.15 µM (inactive) | 7.16 µM (inactive) | 2.33 µM (inactive) | 3.07 µM (inactive) | 5.82 µM (inactive) | 8.89 µM (inactive) | 
C=CCN(c1cc(OC)c2[nH]cc(C)c2c1[N+](=O)[O-])S(C)(=O)=O | > 100 µM (inactive) | > 100 µM (inactive) | > 100 µM (inactive) | > 100 µM (inactive) | > 100 µM (inactive) | > 100 µM (inactive) | > 100 µM (inactive) | > 100 µM (inactive) | > 100 µM (inactive) | > 100 µM (inactive) | > 100 µM (inactive) | > 100 µM (inactive) | > 100 µM (inactive) | > 100 µM (inactive) | > 100 µM (inactive) | > 100 µM (inactive) | > 100 µM (inactive) | > 100 µM (inactive) | > 100 µM (inactive) | 
COc1ccccc1C1Nn2c(nc3ccccc3c2=O)N1c1ccc(C)cc1 (centres undefined) | 4 µM (inactive) | 5.94 µM (inactive) | 3.51 µM (inactive) | 6.34 µM (inactive) | 16.3 µM (inactive) | 14.9 µM (inactive) | 6.19 µM (inactive) | 1.47 µM (inactive) | 10.9 µM (inactive) | 2.04 µM (inactive) | 5.83 µM (inactive) | 7.8 µM (inactive) | 5.11 µM (inactive) | 6.32 µM (inactive) | 4.65 µM (inactive) | 14.4 µM (inactive) | 7.45 µM (inactive) | 2.67 µM (inactive) | 3.72 µM (inactive) | 
CC1O[C@@H]2CCCCC(=O)[C@]2(C)[C@H]1C (some centres undefined) | > 100 µM (inactive) | > 100 µM (inactive) |  | > 100 µM (inactive) | > 100 µM (inactive) | > 100 µM (inactive) | > 100 µM (inactive) | > 100 µM (inactive) |  | > 100 µM (inactive) |  |  | > 100 µM (inactive) | > 100 µM (inactive) | > 100 µM (inactive) | > 100 µM (inactive) | > 100 µM (inactive) | > 100 µM (inactive) | > 100 µM (inactive) | > 100 µM (inactive)
CO[C@H]1C[C@H](O[C@H]2CC[C@]3(C=O)[C@H]4CC[C@]5(C)[C@@H](C6=CC(=O)OC6)CC[C@]5(O)[C@@H]4CC[C@]3(O)C2)O[C@H](C)[C@H]1O[C@@H]1O[C@H](CO)[C@@H](O)[C@H](O)[C@H]1O | 9.16e-06 µM (active) | 6.43e-05 µM (active) | 2.03e-05 µM (active) | > 0.01 µM (active) | 8.22e-05 µM (active) | 5.1e-05 µM (active) | 4.46e-06 µM (active) | 5.42e-06 µM (active) | 7.87e-06 µM (active) | 4.07e-05 µM (active) | 3.94e-05 µM (active) | 6.87e-06 µM (active) | 3.34e-05 µM (active) | 1.26e-05 µM (active) | 7.67e-06 µM (active) | 2.7e-05 µM (active) | 2.62e-05 µM (active) | > 0.01 µM (active) | 4.23e-05 µM (active) | 
